According to patent US11453683B1, “KRas G12D inhibitors” (Mirati Therapeutics, Inc., priority 2019, dated 2022):

Key:
KRas G12D [1] = molecular target: T1, KRas G12D (Homo sapiens (Human), UniProt P01116, G12D); assay: KRas G12D Surface Plasmon Resonance (SPR) Binding Assay; conditions: Biacore T200, immobilized biotinylated KRAS protein, 1:1 binding model
Protocol: Briefly, 1 L of 1.05× HBS-Mg buffer (262.5 mM Bioultra Hepes, pH 7.5, 157.5 mM NaCl, 105 mM MgCl2, 0.525 mM TCEP, 0.0305% Brij-35) was prepared and filter sterilized using a 0.22 μm bottle top filter. Approximately 50 mL of 1.05× HBS-Mg buffer was removed and saved for future dilutions. A 50 mL aliquot of DMSO (Sigma Aldrich DMSO Lot. #SHBK2079) was added and continued to stir for 10 minutes, creating the final 1.0× HBS-Mg buffer (250 mM Bioultra Hepes pH 7.5, 150 mM NaCl, 100 mM MgCl2, 0.5mM TCEP, 0.03% Brij-35).
Biacore T200 instrument was primed using 1.0× HBS-Mg buffer before docking a GE Streptavidin (SA) chip and then primed two additional times prior to beginning the immobilization step. All immobilized protein mixtures were created using 3-5mg/mL Biotinylated Avidin-tagged KRAS protein using the following immobilization settings: SA chip type, 1 flow cells per cycle, 720 second contact time, and 5 ul/min flow rate. Normalization of the detector was also performed during the immobilization step using the GE Biallormalize solution.
All compounds were diluted to 10 mM in 100% DMSO prior to being diluted 20× in 1.05× buffer. […] Data evaluation was performed using the Biacore T200 Evaluation software and data fit to 1:1 binding model.
Target sequence in this assay (P01116-2 other isoform, or with tags, fused parts or gaps G12D): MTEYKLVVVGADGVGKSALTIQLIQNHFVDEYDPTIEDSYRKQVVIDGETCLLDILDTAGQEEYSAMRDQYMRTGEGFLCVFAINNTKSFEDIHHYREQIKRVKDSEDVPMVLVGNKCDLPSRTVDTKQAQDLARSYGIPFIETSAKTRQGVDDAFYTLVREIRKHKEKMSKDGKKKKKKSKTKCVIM

KRas G12D [2] = molecular target: T1, KRas G12D; assay: KRas G12D Binding Assay (TR-FRET displacement); conditions: TR-FRET displacement of Cy5 labelled tracer, GDP-loaded KRAS G12D, 60 minute incubation at 22° C.
Protocol: After a 60 minute incubation at 22° C., the reaction was measured using a PerkinElmer EnVision multimode plate reader via TR-FRET dual wavelength detection, and the percent of control (POC) calculated using a ratiometric emission factor. […] The POC values were fit to a 4-parameter logistic curve and the IC50 value was determined as the concentration where the curve crosses 50 POC.
Target sequence in this assay (P01116 other isoform, or with tags, fused parts or gaps G12D): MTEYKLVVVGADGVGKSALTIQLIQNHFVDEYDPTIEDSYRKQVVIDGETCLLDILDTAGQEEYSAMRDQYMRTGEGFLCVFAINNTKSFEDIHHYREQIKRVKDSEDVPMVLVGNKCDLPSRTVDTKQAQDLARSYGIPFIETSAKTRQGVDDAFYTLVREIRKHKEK

[3] = test system: KRas G12D-mediated phosphorylation of ERK; assay: Inhibition of KRas G12D-mediated phosphorylation of ERK in AGS cells; type: cell-based; conditions: Homo sapiens; AGS cells expressing G12D, 3 hours, phospho-ERK normalized to GAPDH
In short: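 Fixed, methanol-permeabilized; phospho-ERK (Thr202/Tyr204) by in-cell immunofluorescence normalized to GAPDH. Percent of DMSO control, IC50 by 4-parameter fit.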

SMILES | Kd (KRas G12D [1]) | IC50 (KRas G12D [2]) | IC50 [3]
Oc1cc(-c2ncc3c(N4C[C@H]5CC[C@@H](C4)N5)nc(OCCCN4C[C@@H]5C[C@H]4CO5)nc3c2F)c2ccccc2c1 [Example 24, 4-(2-(3-((1S,4S)-2-oxa-5-azabicyclo[2.2.1]heptan-5-yl)propoxy)-4-((1R,5S)-3,8-diazabicyclo[3.2.1]octan-3-yl)-8-fluoropyrido[4,3-d]pyrimidin-7-yl)naphthalen-2-ol] | 0.005 µM | 0.0079 µM | 2.89 µM
Fc1c(-c2cncc3cccc(Cl)c23)ncc2c(N3C[C@H]4CC[C@@H](C3)N4)nc(OCC34CCCN3CCC4)nc12 [Example 33, 4-((1R,5S)-3,8-diazabicyclo[3.2.1]octan-3-yl)-7-(5-chloroisoquinolin-4-yl)-8-fluoro-2-((tetrahydro-1H-pyrrolizin-7a(5H)-yl)methoxy)pyrido[4,3-d]pyrimidine bis(2,2,2-trifluoroacetate)] | 0.0717 µM | 0.0211 µM | 2.05 µM
[O-][N+]12CCCC1(COc1nc(N3CC4CCC(C3)N4)c3cnc(-c4cccc5cccc(Cl)c45)c(F)c3n1)CCC2 [Example 60, 7a-(((4-((1R,5S)-3,8-diazabicyclo[3.2.1]octan-3-yl)-7-(8-chloronaphthalen-1-yl)-8-fluoropyrido[4,3-d]pyrimidin-2-yl)oxy)methyl)hexahydropyrrolizine 4(1H)-oxide] | > 1000 µM | 1.66 µM | > 16.7 µM
O[C@@H]1C[C@@H]2CN(c3nc(OCC45CCCN4CCC5)nc4c(F)c(-c5cccc6cccc(Cl)c56)ncc34)C[C@H]1N2 [Example 49, (1R,5R,6R)-3-(7-(8-chloronaphthalen-1-yl)-8-fluoro-2-((tetrahydro-1H-pyrrolizin-7a(5H)-yl)methoxy)pyrido[4,3-d]pyrimidin-4-yl)-3,8-diazabicyclo[3.2.1]octan-6-ol] | 0.0004 µM | 0.0059 µM | 2.12 µM
COC(=O)C12CCC(CN(c3nc(OC[C@@H]4CCCN4C)nc4c(F)c(-c5cc(O)cc6ccccc56)ncc34)C1)N2 (stereo partly drawn) [Example 158, methyl 3-(8-fluoro-7-(3-hydroxynaphthalen-1-yl)-2-(((S)-1-methylpyrrolidin-2-yl)methoxy)pyrido[4,3-d]pyrimidin-4-yl)-3,8-diazabicyclo[3.2.1]octane-1-carboxylate bis(2,2,2-trifluoroacetate)] | 0.33 µM | 0.0737 µM | 4.22 µM
OC[C@@H](O)COc1nc(N2C[C@H]3CC[C@@H](C2)N3)c2cnc(-c3cccc4cccc(Cl)c34)c(F)c2n1 [Example 56, (R)-3-((4-((1R,5S)-3,8-diazabicyclo[3.2.1]octan-3-yl)-7-(8-chloronaphthalen-1-yl)-8-fluoropyrido[4,3-d]pyrimidin-2-yl)oxy)propane-1,2-diol] | 5.17 µM | 5.92 µM | –
Oc1cc(-c2ncc3c(N4C[C@H]5CC[C@@H](C4)N5)nc(OCCc4ccccc4F)nc3c2F)c2ccccc2c1 [Example 67, 4-(4-((1R,5S)-3,8-diazabicyclo[3.2.1]octan-3-yl)-8-fluoro-2-(2-fluorophenethoxy)pyrido[4,3-d]pyrimidin-7-yl)naphthalen-2-ol] | 1.15 µM | 1.25 µM | –
CC(C)N1CCC[C@H]1COc1nc(N2C[C@H]3C[C@@H](O)[C@@H](C2)N3)c2cnc(-c3cccc4cccc(Cl)c34)c(F)c2n1 [Example 153, (1R,5R,6R)-3-(7-(8-chloronaphthalen-1-yl)-8-fluoro-2-(((S)-1-isopropylpyrrolidin-2-yl)methoxy)pyrido[4,3-d]pyrimidin-4-yl)-3,8-diazabicyclo[3.2.1]octan-6-ol] | 0.0705 µM | 0.0508 µM | 2.37 µM
Oc1cc(-c2ncc3c(N4C[C@H]5CC[C@@H](C4)N5)nc(OCCc4ncccn4)nc3c2F)c2ccccc2c1 [Example 7, 4-(4-((1R,5S)-3,8-diazabicyclo[3.2.1]octan-3-yl)-8-fluoro-2-(2-(pyrimidin-2-yl)ethoxy)pyrido[4,3-d]pyrimidin-7-yl)naphthalen-2-ol] | 0.464 µM | 1.87 µM | –
Cn1c(CCOc2nc(N3C[C@H]4CC[C@@H](C3)N4)c3cnc(-c4cc(O)cc5ccccc45)c(F)c3n2)nc2ccccc21 [Example 30, 4-(4-((1R,5S)-3,8-diazabicyclo[3.2.1]octan-3-yl)-8-fluoro-2-(2-(1-methyl-1H-benzo[d]imidazol-2-yl)ethoxy)pyrido[4,3-d]pyrimidin-7-yl)naphthalen-2-ol] | 0.18 µM | 0.418 µM | 9.6 µM
